≈ marks a conversion by molar mass, not a printed value. Calls of active or inactive are those of the source. The calls are words filed in the database; no cut-off is given here.
Tests used:
Escherichia coli [1] = experiment: Antibacterial activity against AcrAB deficient Escherichia coli SM1411 after 18 hrs by broth microdilution method; type: functional, organism-based
Escherichia coli [2] = experiment: Inhibition of Escherichia coli MurF assessed as residual activity at 250 uM by malachite green assay
Escherichia coli [3] = experiment: Antibacterial activity against Escherichia coli 1411 after 18 hrs by broth microdilution method; type: functional, organism-based
Staphylococcus aureus = experiment: Antibacterial activity against Staphylococcus aureus 8325-4 after 18 hrs by broth microdilution method; type: functional
[4] = Inhibition of Escherichia coli MurF
Escherichia coli [5] = experiment: Inhibition of Escherichia coli MurD assessed as residual activity at 250 uM by malachite green assay
[6] = Inhibition of Escherichia coli MurD assessed as blockade of addition of D-[14C]Glu to UDP-MurNAc-L-Ala

Row | SMILES | Activity (Escherichia coli [1]) | Activity (Escherichia coli [2]) [%] | Activity (Escherichia coli [3]) | Activity (Staphylococcus aureus) | IC50 [4] [µM] | MIC (Staphylococcus aureus) [µg/mL] | Activity (Escherichia coli [5]) [%] | IC50 [6] [µM]
1 | Sc1nnc(SCc2ccccc2Cl)c2nc[nH]c12 | inactive | < 50 | inactive | inactive | – | – | – | –
2 | CSc1ccc2c(c1)c(CCN)c(C)n2Cc1ccccc1Cl | inactive | < 50 | inactive | inactive | – | – | – | –
3 | O=C(O)c1c(Cl)c(Cl)c(Cl)c(Cl)c1C(=O)Nc1ccc2cn[nH]c2c1 | inactive | < 50 | inactive | inactive | – | – | – | –
4 | Oc1nc(S)nc(SCc2c(Cl)c(Cl)c(Cl)c(Cl)c2Cl)n1 | Active | < 50 | – | – | 63 | 128 (≈ 302 µM) | – | –
5 | O=C(O)C1C(C(=O)O)C2(Cl)C(Cl)=C(Cl)C1(Cl)C2(Cl)Cl (stereo unspecified) | inactive | – | inactive | inactive | – | – | < 50 | –
6 | CC1C2C=CC1C(c1c3ccc(=O)c(O)c-3oc3c(O)c(O)ccc13)C2C(=O)O (stereo unspecified) | inactive | – | inactive | inactive | – | – | – | 43
7 | CCOc1ccc2c(c1)C=C/C(=C/C=C1\C=C(C)c3cccnc3C1=O)N2C | inactive | < 50 | inactive | inactive | – | – | – | –
8 | Nc1c(S(=O)(=O)O)cc(Nc2cccc(S(N)(=O)=O)c2)c2c1C(=O)c1ccccc1C2=O | inactive | < 50 | inactive | inactive | – | – | – | –
9 | O=S(=O)(O)c1ccc2c(/N=N/c3c(O)ccc4ccccc34)cccc2c1 | inactive | < 50 | inactive | inactive | – | – | – | –
10 | O=C(O)/C=C/c1c2ccc(=O)c(O)c-2oc2c(O)c(O)ccc12 | inactive | – | inactive | inactive | – | – | < 50 | 47
11 | O=C1/C(=N/CCc2cc(Br)c(O)c(Br)c2)C=C(O)c2cccnc21 | inactive | < 50 | inactive | inactive | – | – | – | –
12 | O=C(O)c1cc2c(cc1S(=O)(=O)O)C1C(C3C2C2(Cl)C(Cl)=C(Cl)C3(Cl)C2(Cl)Cl)C2(Cl)C(Cl)=C(Cl)C1(Cl)C2(Cl)Cl (stereo unspecified) | inactive | – | inactive | inactive | – | – | < 50 | 34
13 | FC(F)(F)c1nc2ccc(SSc3ccc4nc(C(F)(F)F)[nH]c4c3)cc2[nH]1 | inactive | < 50 | inactive | inactive | – | – | – | –
14 | O=C(O)c1c(Br)c(Br)c(Br)c(Br)c1C1c2ccc(O)cc2Oc2cc(O)ccc21 | inactive | – | inactive | inactive | – | – | < 50 | 10
15 | CCCCCCCCCCCCN(C)C | inactive | < 50 | inactive | inactive | – | – | – | –
16 | O=S(=O)(O)c1cc(/N=[N+](\[O-])c2cc(S(=O)(=O)O)c3ccccc3c2)cc2ccccc12 | inactive | < 50 | inactive | inactive | – | – | – | –
17 | Oc1ccccc1C(Sc1nc2ccccc2s1)Sc1nc2ccccc2s1 | inactive | < 50 | inactive | inactive | – | – | – | –

Source: ChEMBL document CHEMBL1152765, “Discovery of new inhibitors of the bacterial peptidoglycan biosynthesis enzymes MurD and MurF by structure-based virtual screening” (Bioorg Med Chem, 2009)
